{"source": "patent US20040170645A1", "about": "“Seaweed extract composition for retardation of cardiovascular disorders and preservation of healthy cardiovascular function” (priority 2002, published 2004)", "tested_on": "thrombus in the right jugular vein", "experiment": "Thrombosis test (jugular vein, formalin/methanol initiated)", "assay_type": "in vivo, rat", "details": "7.5 mg/kg oral, 4 h", "protocol": "One hundred and two male Wistar rats, weighing 312±64 g (±SD), were handled and housed according to the Principles of Animal Care set out by the Canadian Federation of Biological Societies. The animals were fasted overnight prior to treatment and were anaesthetized with barbital and methoxyflurane for experimental procedures.\nThe rhamnan-arginine complex was weighed fresh daily. Six to 8 rats were treated per day. […] Thus when the stomach tube was placed in the stomach the drugs were first introduced into the stomach followed by saline to give a total volume of approximately 0.4 ml. In the heparin alone group, heparin was administered in a volume of 0.1-0.2 ml followed by 0.2 ml saline. Control group was saline alone.\nThe thrombosis test was performed by a modification of the procedure by Blake et al. For animals exposed to treatment for 4 h, a thrombus was initiated in the right jugular vein by application of 10% formalin in 65% methanol to the exposed adventitial surface. Immediately following, drugs were introduced into the stomach by stomach tube. […] The clot was scored as + (hard clot) if the vessel is blocked and remained blocked despite examination with a cotton pledget. […] The thrombus was scored as − (negative) if blood was seen to flow freely in the vessel.\nThrombosis data is expressed as a percentage with 95% confidence intervals. […] Other data is expressed as mean ±SE. […]", "data": [{"substance": "Heparin", "values": [{"measurement": "incidence of hard clots", "value": "reduced the percentage of incidence of hard clots"}, {"measurement": "total incidence of thrombosis", "value": "little or no effect"}]}]}
